According to patent publication US20070077238A1, “Production of organic and inorganic selenium compounds by lactic acid bacteria” (priority 2005, published 2007):

System: lactic acid bacteria strains
Assay: Growth of lactic acid bacteria strains on media containing selenate or selenite
Type: cell-based, lactic acid bacteria from gastrointestinal tracts of chicken
Details: 250 ppm in media
Description: Putative strains of LAB were grown on MRS agar plates containing various concentrations of selenate and selenite.

| Structure (SMILES) | Number of lactic acid bacteria strains grown (percentage of bacterial cells that grew) (incubation time 12 h) | Number of lactic acid bacteria strains grown (percentage of bacterial cells that grew) (incubation time 24 h) | Number of lactic acid bacteria strains grown (percentage of bacterial cells that grew) (incubation time 48 h) | Number of lactic acid bacteria strains grown (percentage of bacterial cells that grew) (incubation time >48 h) |
| --- | --- | --- | --- | --- |
| O=[Se](=O)([O-])[O-].[Na+].[Na+] [Selenate, sodium selenate] | 75.3 percentage | 14.4 percentage | 10.3 percentage | 0 percentage |
| O=[Se](O)O [Selenite, sodium selenite] | 62.9 percentage | 2.1 percentage | 24.7 percentage | 10.3 percentage |
